15 compounds from patent US20080312209A1, “Piperazine Heteroaryl Derivatives as Gpr38 Agonists” (Glaxo Group Limited, priority 2005, published 2008) can be followed below.

The target in test [1] is T1, hGPR38R (Homo sapiens, UniProt O43193). The experiment in a line: GPR38 FLIPR functional agonist assay. Set-up: expressed in transfected cells. The conditions noted are these: HEK-293 cells stably expressing the GPR38 receptor, agonist response, Fluo-4 fluorescence. The format is cell-based. The procedure:
The potencies and efficacies of the compounds of this invention for GPR^38 can be determined by FLIPR assay performed on the human cloned receptor as described herein. It has been found, using the FLIPR functional assay, that compounds of formula (I) appear to be partial or full agonists of the GPR38 receptor.
GPR38FLIPR Functional Agonist Assay Protocol
HEK-293 cells stably expressing the GPR38 receptor were seeded (10,000 cells/well) into poly-D-lysine coated 384-well black-wall, clear-bottom microtitre plates (Becton Dickinson) 24 h prior to assay. On day of assay, cells were washed (×2) with 80 ul of assay buffer (Hanks Balanced Salts Solution (HBSS), 10 mM HEPES, 200 μM Ca^2+, 2.5 mM probenecid) using the EMBLA cell washer. After the final wash, buffer was aspirated to leave a residual volume of 30 ul on the cells. Cells were loaded with 1 μM (final) Fluo-4-AM fluorescent indicator dye (TefLabs) in assay buffer, (20 ul loading solution added to each well using the Multidrop). Plates were incubated for 1 h at 37° C., before being washed (×3) with 80 ul assay buffer using the EMBLA cell washer; 30 ul residual being left after the final wash. Plates were then assayed on a Fluorometric Imaging Plate Reader (FLIPR, Molecular Devices). Test compounds were prepared in assay buffer without probenecid, but containing 0.03% CHAPS. In the FLIPR, 10 ul of test compound was added to the cells and changes in fluorescence measured over a 2 min timeframe. Maximum change in fluorescence over baseline was used to determine agonist response and concentration response curves were constructed, using a 4-parameter logistic equation.
(§1) The following alternative procedure may also be used:
HEK-293 cells stably expressing the GPR38 receptor were seeded (30,000 cells/100 ul growth media/well) into poly-D-lysine coated 96-well black-wall, clear-bottom microtitre plates (Corning) 24 hours prior to assay. On the day of assay the cells were loaded with 2 μM (final) Fluo-4-AM fluorescent indicator dye (Molecular Probes) and 1 mM (final) probenicid in assay buffer (145 mM sodium chloride, 2.5 mM potassium chloride, 10 mM Hepes, 10 mM glucose, 1.2 mM magnesium chloride, 1.5 mM calcium chloride and 0.1% BSA) (50 ul loading solution added to each well). Plates were incubated for 1 hour at 25° C., before being washed 4 times with 100 ul assay buffer using the EMBLA cell washer; 150 ul residual being left after the final wash. The cells were then incubated at 25° C. for 20 minutes and the plates were then assayed on a Fluorometric Imaging Plate Reader (FLIPR, Molecular Devices). Test compounds were prepared in assay buffer without probenecid. In the FLIPR, 50 ul of test compound was added to the cells and changes in fluorescence measured over a 2 minute timeframe. Maximum change in fluorescence over baseline was used to determine agonist response and concentration response curves were constructed, using a 4-parameter logistic equation.
Target sequence in this assay (O43193 whole entry): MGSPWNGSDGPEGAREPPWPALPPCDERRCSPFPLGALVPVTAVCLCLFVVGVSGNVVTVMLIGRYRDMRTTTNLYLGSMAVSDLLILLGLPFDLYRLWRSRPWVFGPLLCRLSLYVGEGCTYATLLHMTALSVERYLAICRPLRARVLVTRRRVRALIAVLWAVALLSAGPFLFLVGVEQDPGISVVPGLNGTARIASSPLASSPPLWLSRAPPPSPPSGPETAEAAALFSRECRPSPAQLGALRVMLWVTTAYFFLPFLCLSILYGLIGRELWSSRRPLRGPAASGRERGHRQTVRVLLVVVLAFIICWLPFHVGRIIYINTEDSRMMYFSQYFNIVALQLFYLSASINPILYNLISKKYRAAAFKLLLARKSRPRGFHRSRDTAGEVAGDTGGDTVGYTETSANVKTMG

The target of test [2] is T1, hGPR38R. The experiment in a line: GPR38 GTPγS functional agonist assay. Set-up: expressed in transfected cells; host or cells: HEK293 (transient transfection; P2 membrane fractions). The format is biochemical. The procedure:
The potencies and intrinsic activities of the compounds of this invention can also be determined according to the [35S]GTPγS functional assay which is described herein. It has been found, using the [35S]GTPγS functional assay, that compounds of formula (I) appear to be partial or full agonists of the GPR38 receptor.
GPR38GTPγS Functional Agonist Assay Protocol
For each compound being assayed, in an Opti clear bottom 96 well plate, is added:—
(a) 20 μl of test compound (or 10 μl of guanosine 5′-triphosphate (GTP) as non-specific binding control) diluted to required concentration in assay buffer (20 mM N-2-Hydroxyethylpiperazine-N′-2-ethanesulfonic acid (HEPES)+100 mM NaCl+10 mM MgCl2, pH adjusted to 7.4 with NaOH); (b) 60 μl bead/membrane/GDP mix prepared by suspending wheat germ agglutinin-polyvinyltoluene (WGA-PVT) scintillation proximity assay (SPA) beads at 100 mg/ml in assay buffer followed by mixing with membrane (prepared in accordance with the methodology described above) and diluting in assay buffer to give a final volume of 60 μl which contains 10 μg protein and 0.5 mg bead per well—mixture is pre-mixed at 4° C. for 30 min on a roller and just prior to addition to the plate, 10 μM final concentration of guanosine 5′ diphosphate (GDP—diluted in assay buffer) is added; (c) 20 μl guanosine 5′ [γ35-S]thiotriphosphate, triethylamine salt (Amersham; radioactivity concentration=37 kBq/μl or 1 mCi/ml; Specific Activity 1160 Ci/mmol) diluted to 1.9 nM in assay buffer to give 0.38 nM final.
The plate is incubated on a shaker at 25° C. for 30 min followed by centrifugation for 5 min at 1500 rpm. The plate is read between 3 and 6 h after completion of centrifuge run in a Wallac Microbeta counter on a 1 min normalised tritium count protocol. Data is analysed using a 4-parameter logistic equation. Basal activity used as minimum.
as §1
Target sequence in this assay (O43193 whole entry): as above
Target sequence in this assay (P09471 2-354 partner limits assumed): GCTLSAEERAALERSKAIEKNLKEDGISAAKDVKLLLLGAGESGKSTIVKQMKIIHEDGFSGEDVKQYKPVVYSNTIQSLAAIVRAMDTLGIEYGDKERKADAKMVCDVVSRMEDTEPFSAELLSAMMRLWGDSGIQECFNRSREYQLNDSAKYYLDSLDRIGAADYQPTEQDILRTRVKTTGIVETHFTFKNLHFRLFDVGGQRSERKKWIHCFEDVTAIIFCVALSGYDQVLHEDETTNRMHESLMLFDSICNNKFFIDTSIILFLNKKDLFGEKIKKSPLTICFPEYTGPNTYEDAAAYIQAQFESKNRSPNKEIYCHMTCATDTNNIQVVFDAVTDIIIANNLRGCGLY
Target sequence in this assay (P62873 2-340 partner limits assumed): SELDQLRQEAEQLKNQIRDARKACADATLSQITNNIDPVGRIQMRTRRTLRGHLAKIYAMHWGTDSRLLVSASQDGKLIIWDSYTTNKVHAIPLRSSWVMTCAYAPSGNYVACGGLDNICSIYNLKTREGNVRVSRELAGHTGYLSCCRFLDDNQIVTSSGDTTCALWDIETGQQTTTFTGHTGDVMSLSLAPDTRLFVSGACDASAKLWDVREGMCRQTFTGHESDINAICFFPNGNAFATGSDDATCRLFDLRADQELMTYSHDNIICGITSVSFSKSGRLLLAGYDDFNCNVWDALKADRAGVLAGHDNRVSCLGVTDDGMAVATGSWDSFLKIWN
Target sequence in this assay (P59768 2-68 partner limits assumed): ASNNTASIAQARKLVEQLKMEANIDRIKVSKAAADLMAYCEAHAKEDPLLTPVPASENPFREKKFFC
Membranes are derived from bulk cell cultures of HEK293 cell lines transiently transfected with hGPR38R and Go G-protein. P2 membranes fractions are prepared, aliquoted and stored at −80° C.
For each compound being assayed, the following is added into a white Greiner 384 well plate:—
(a) 1 μl of test compound diluted to required concentration in DMSO. (b) 20 μl bead/membrane/Saponin/GDP mix prepared as follows;—suspension of LEADseeker wheat germ agglutinin (WGA) scintillation proximity assay (SPA) beads at 25 mg/ml in assay buffer (20 mM N-2-Hydroxyethylpiperazine-N′-2-ethanesulfonic acid (HEPES)+100 mM NaCl+10 mM MgCl2, pH adjusted to 7.4 with KOH) containing saponin at 150 ug/ml. Mixing of bead suspension with membranes at 500 ug/ml (prepared in accordance with the methodology described above) and diluting in assay buffer to give a final volume of 20 μl which contains 5 μg protein and 0.25 mg bead per well.
Mixture is pre-mixed for 30 minutes on a roller and just prior to addition to the plate, 3 μM final assay concentration of guanosine 5′ diphosphate (GDP) (diluted in assay buffer) is added.
(c) 25 μl guanosine 5′ [γ35-S]thiotriphosphate, triethylamine salt (Amersham; radioactivity concentration=37 kBq/μl or 1 mCi/ml; Specific Activity 1160 Ci/mmol) diluted to 0.6 nM in assay buffer to give 0.33 nM final assay concentration.
The plate is then spun for 2 minutes at 1500 rpm and then incubated at room temperature for 4 hours. The plate is then read on a Viewlux Plux (Perkin Elmer). Data is analysed using a 4-parameter logistic equation.

The mark [3] stands for this setting: read-out: pEC50 in the FLIPR assay (converted).
Where [4] appears, read: [35S]GTPγS SPA, HEK293 membranes with hGPR38R and Go G-protein, read-out: pEC50 in the GTPγS assay (converted).

As for `C[C@@H]1CN(Cc2ccc(-c3cccnc3C(=O)N3CCC(Oc4cccc(F)c4)CC3)cc2F)C[C@H](C)N1` [Example 35, (3R,5S)-1-({2-fluoro-4-[2-({4-[(3-fluorophenyl)oxy]-1-piperidinyl}carbonyl)-3-pyridinyl]phenyl}methyl)-3,5-dimethylpiperazine], the EC50 at hGPR38R [1] (setting [3]) is less than 0.316 µM.

As to `C[C@@H]1CN(Cc2ccc(-c3cccnc3C(=O)N3CCC(Oc4cccc(F)c4)CC3)cc2)C[C@H](C)N1` [Example 34, (3R,5S)-1-({4-[2-({4-[(3-fluorophenyl)oxy]-1-piperidinyl}carbonyl)-3-pyridinyl]phenyl}methyl)-3,5-dimethylpiperazine], the EC50 at hGPR38R [2] (setting [4]) is less than 3.16 µM; at hGPR38R [1] (setting [3]) it was less than 0.316 µM.

As to `C[C@@H]1CN(Cc2ccc(-c3cccnc3C(=O)N3CC[C@H](Oc4ccc(F)cc4)C3)cc2)C[C@H](C)N1` [Example 18, (3R,5S)-1-({4[2-({(3S)-3-[(4-fluorophenyl)oxy]-1-pyrrolidinyl}carbonyl)-3-pyridinyl]phenyl}methyl)-3,5-dimethylpiperazine], the EC50 on hGPR38R [2] (setting [4]) is less than 3.16 µM; on hGPR38R [1] (setting [3]), less than 0.316 µM.

Regarding `C[C@@H]1CN(Cc2ccc(-c3cccnc3C(=O)N3CCC(Nc4ccc(F)cc4)CC3)cc2)C[C@H](C)N1` [Example 2, (3R,5S)-3,5-Dimethyl-1-({4-[2-({4-[(4-fluorophenyl)amino]piperidin-1-yl}carbonyl)pyridin-3-yl]phenyl}methyl)piperazine], the EC50 on hGPR38R [2] was less than 3.16 µM; at hGPR38R [1] (pEC50 in the FLIPR assay) it was less than 0.316 µM.

`C[C@@H]1CN(Cc2ccc(-c3cccnc3C(=O)N3CCC(Nc4cccc(F)c4)CC3)cc2)C[C@H](C)N1` [Example 10, 1-{[3-(4-{[(3R,5S)-3,5-dimethyl-1-piperazinyl]methyl}phenyl)-2-pyridinyl]carbonyl}-N-(3-fluorophenyl)-4-piperidinamine]: the EC50 at hGPR38R [2] was less than 3.16 µM; at hGPR38R [1] (pEC50 in the FLIPR assay), less than 0.316 µM.

Consider `C[C@@H]1CN(Cc2ccc(-c3cccnc3C(=O)N3CCC(Nc4ccc(F)c(F)c4)CC3)cc2F)C[C@H](C)N1` [Example 12, N-(3,4-difluorophenyl)-1-{[3-(4-{[(3R,5S)-3,5-dimethyl-1-piperazinyl]methyl}-3-fluorophenyl)-2-pyridinyl]carbonyl}-4-piperidinamine], for which the EC50 at hGPR38R [2] was less than 3.16 µM; on hGPR38R [1] (pEC50 in the FLIPR assay), less than 0.316 µM.

Turning to `C[C@@H]1CN(Cc2ccc(-c3cccnc3C(=O)N3CCC(Nc4cccc(F)c4)C3)cc2)C[C@H](C)N1` (stereo partly drawn) [Example 33, 1-{[3-(4-{[(3R,5S)-3,5-dimethyl-1-piperazinyl]methyl}phenyl)-2-pyridinyl]carbonyl}-N-(3-fluorophenyl)-3-pyrrolidinamine], the EC50 at hGPR38R [2] (setting [4]) is less than 3.16 µM; on hGPR38R [1] (setting [3]) it was less than 0.316 µM.

The compound `C[C@@H]1CN(Cc2ccc(-c3cccnc3C(=O)N3CCC(Nc4cc(F)cc(F)c4)CC3)cc2F)C[C@H](C)N1` [Example 27, N-(3,5-difluorophenyl)-1-{[3-(4-{[(3R,5S)-3,5-dimethyl-1-piperazinyl]methyl}-3-fluorophenyl)-2-pyridinyl]carbonyl}-4-piperidinamine] yielded an EC50 at hGPR38R [2] of less than 3.16 µM.

At hGPR38R [2], `C[C@@H]1CN(Cc2ccc(-n3ccnc3C(=O)N3CCC(Nc4cccc(F)c4)CC3)cc2F)C[C@H](C)N1` [Example 25, 1-{[1-(4-{[(3R,5S)-3,5-dimethyl-1-piperazinyl]methyl}-3-fluorophenyl)-1H-imidazol-2-yl]carbonyl}-N-(3-fluorophenyl)-4-piperidinamine] returned an EC50 of less than 3.16 µM.

Turning to `Cc1nc(CN(C)C(=O)COc2ccc(F)cc2)c(-c2ccc(CN3C[C@@H](C)N[C@@H](C)C3)cc2)s1` [Example 7, N-{[5-(4-{[(3R,5S)-3,5-dimethyl-1-piperazinyl]methyl}phenyl)-2-methyl-1,3-thiazol-4-yl]methyl}-2-[(4-fluorophenyl)oxy]-N-methylacetamide], the EC50 at hGPR38R [2] (setting [4]) was less than 3.16 µM.

Regarding `C[C@@H]1CN(Cc2ccc(-n3ccnc3C(=O)N3CCC(Nc4ccccc4F)CC3)cc2)C[C@H](C)N1` [Example 23, 1-{[1-(4-{[(3R,5S)-3,5-dimethyl-1-piperazinyl]methyl}phenyl)-1H-imidazol-2-yl]carbonyl}-N-(2-fluorophenyl)-4-piperidinamine], at hGPR38R [2], the EC50 is less than 3.16 µM.

Regarding `C[C@@H]1CN(Cc2ccc(-c3cccnc3C(=O)N3CCC(Nc4cccc(C#N)c4)CC3)cc2F)C[C@H](C)N1` [Example 30, 3-[(1-{[3-(4-{[(3R,5S)-3,5-dimethyl-1-piperazinyl]methyl}-3-fluorophenyl)-2-pyridinyl]car-bonyl}-4-piperidinyl)amino]benzonitrile], the EC50 at hGPR38R [2] (setting [4]) is less than 3.16 µM.

`Cc1nc(C(=O)N2CCC(Nc3ccc(F)cc3)CC2)c(-c2ccc(CN3C[C@@H](C)N[C@@H](C)C3)cc2)s1` [Example 5] showed an EC50 on hGPR38R [2] of less than 3.16 µM.

The compound `C[C@@H]1CN(Cc2ccc(-n3ccnc3C(=O)N3CCC(Nc4ccc(F)cc4)CC3)cc2F)C[C@H](C)N1` [Example 24, 1-{[1-(4-{[(3R,5S)-3,5-dimethyl-1-piperazinyl]methyl}-3-fluorophenyl)-1H-imidazol-2-yl]carbonyl}-N-(4-fluorophenyl)-4-piperidinamine] gave an EC50 at hGPR38R [2] of less than 3.16 µM.

As for `Cc1nc(C(=O)N2CCC(Cc3ccc(F)cc3)CC2)c(-c2ccc(CN3C[C@@H](C)N[C@@H](C)C3)cc2)s1` [Example 4, (3R,5S)-3,5-Dimethyl-1-({4-[4-({4-[(4-fluorophenyl)methyl]piperidin-1-yl}carbonyl)-2-methyl-1,3-thiazol-5-yl]phenyl}methyl)piperazine], the EC50 at hGPR38R [2] (setting [4]) was less than 3.16 µM.
